The record followed here is patent US20210238162A1, “CHEMICAL COMPOUNDS” (GlaxoSmithKline Intellectual Property Development Limited, priority 2015, published 2021).

Counter-ions that a name gives are not always drawn. Bounds are passed on as bounds.

The target in the first test is T1, haematopoietic prostaglandin D synthase (H-PGDS) (Homo sapiens, UniProt O60760).
T1 construct: Full length human H-PGDS cDNA (Invitrogen Ultimate ORF IOH13026) was amplified by PCR; made in house; host or cells: E. coli BL21 (DE3*), vector pET22b+
T1 sequence (O60760 whole entry): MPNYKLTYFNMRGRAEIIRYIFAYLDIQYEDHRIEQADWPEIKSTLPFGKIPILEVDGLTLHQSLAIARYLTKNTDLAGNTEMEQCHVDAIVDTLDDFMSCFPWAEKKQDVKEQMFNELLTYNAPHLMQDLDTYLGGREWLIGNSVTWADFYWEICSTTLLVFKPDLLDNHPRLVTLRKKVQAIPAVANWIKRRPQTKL
Description: H-PGDS RapidFire High Throughput Mass Spectrometry Assay. It is filed as biochemical. The following applies: H-PGDS RapidFire MS assay, mean pIC50; read-out: Potency Range (mean pIC50) (converted). The gist of the method: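 PGH2 (~10 μM burst) generated in situ from arachidonic acid by FLAG-tagged human COX-2 (Sf9-expressed), then converted to PGD2 by full-length human His-tagged H-PGDS from E. coli. PGD2 and PGF2α (substrate surrogate) quantified by RapidFire SPE-triple quadrupole MS; percent conversion calculated.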
On to `NC(=O)CO[C@H]1CC[C@H](NC(=O)c2cnc3cc(OC(F)F)c(Cl)cc3c2)CC1` [Example 136, N-(trans-4-(2-Amino-2-oxoethoxy)cyclohexyl)-6-chloro-7-(difluoromethoxy)quinoline-3-carboxamide], for which the IC50 is < 10 nM. Still for that read-out and setting: under `C[C@]1(O)C[C@H](NC(=O)c2cnc3cc(OC(F)F)c(Cl)cc3c2)C1` [Example 137, 6-Chloro-7-(difluoromethoxy)-N-((1r,3r)-3-hydroxy-3-methylcyclobutyl)quinoline-3-carboxamide] stands 10 to 79.4 nM. Still for that read-out and setting: under `C[C@]1(O)C[C@@H](NC(=O)c2cnc3cc(OC(F)F)c(Cl)cc3c2)C1` [Example 138, 6-Chloro-7-(difluoromethoxy)-N-((1s,3s)-3-hydroxy-3-methylcyclobutyl)quinoline-3-carboxamide] stands 10 to 79.4 nM.

In the case of `CS(=O)(=O)CCO[C@H]1CC[C@H](NC(=O)c2cnc3cc(OC(F)F)c(Cl)cc3c2)CC1` [Example 139, 6-Chloro-7-(difluoromethoxy)-N-(trans-4-(2-(methylsulfonyl)ethoxy)cyclohexyl)quinoline-3-carboxamide], the IC50 was < 10 nM.

`O=C(N[C@H]1C[C@H](O)C1)c1cnc2cc(OC(F)F)c(Cl)cc2c1` [Example 140, 6-Chloro-7-(difluoromethoxy)-N-(trans-3-hydroxycyclobutyl)quinoline-3-carboxamide]: the IC50 was 10 to 79.4 nM. Still for that read-out and setting: under `NS(=O)(=O)O[C@H]1CC[C@H](NC(=O)c2cnc3cc(OC(F)F)c(Cl)cc3c2)CC1` [Example 141, trans-4-(6-Chloro-7-(difluoromethoxy)quinoline-3-carboxamido)cyclohexyl sulfamate] stands < 10 nM; under `O=C1CC(NC(=O)c2cnc3cc(OC(F)F)c(Cl)cc3c2)C1` [Example 142, 6-Chloro-7-(difluoromethoxy)-N-(3-oxocyclobutyl)quinoline-3-carboxamide], 10 to 79.4 nM.

As to `C[C@]1(O)CC[C@H](NC(=O)c2cnc3cc(OC(F)F)c(Cl)cc3c2)CC1` [Example 143, 6-Chloro-7-(difluoromethoxy)-N-((1r,4r)-4-hydroxy-4-methylcyclohexyl)quinoline-3-carboxamide], the IC50 was < 10 nM. Same read-out and setting: under `C[C@@H]1CNC(=O)[C@H]1NC(=O)c1cnc2cc(OC(F)F)c(Cl)cc2c1` [Example 144, 6-Chloro-7-(difluoromethoxy)-N-((3S,4R)-4-methy-2-oxopyrrolidin-3-yl)quinoline-3-carboxamide] stands < 10 nM. Same read-out and setting: as for `CC1(O)CCC(NC(=O)c2cnc3cc(OC(F)F)c(Cl)cc3c2)C1` (centres unmarked) [Example 145, 6-Chloro-7-(difluoromethoxy)-N-(3-hydroxy-3-methylcyclopentyl)quinoline-3-carboxamide], the figure is 10 to 79.4 nM; as for `C[C@]1(O)CC[C@@H](NC(=O)c2cnc3cc(OC(F)F)c(Cl)cc3c2)CC1` [Example 147, 6-Chloro-7-(difluoromethoxy)-N-((1s,4s)-4-hydroxy-4-methylcyclohexyl)quinoline-3-carboxamide], 10 to 79.4 nM. As for `O=C(NC1CCOCC1)c1cnc2cc(OC(F)F)c(Cl)cc2c1` [Example 148, 6-Chloro-7-(difluoromethoxy)-N-(tetrahydro-2H-pyran-4-yl)quinoline-3-carboxamide], the IC50 is 10 to 79.4 nM. On the same count and under the same terms, under `O=C(NC1CCCOC1)c1cnc2cc(OC(F)F)c(Cl)cc2c1` (centres unmarked) [Example 149, 6-Chloro-7-(difluoromethoxy)-N-(tetrahydro-2H-pyran-3-yl)quinoline-3-carboxamide] stands 10 to 79.4 nM.

With `CC1(C)CC(NC(=O)c2cnc3cc(OC(F)F)c(Cl)cc3c2)CCO1` (centres unmarked) [Example 150, 6-Chloro-7-(difluoromethoxy)-N-(2,2-dimethyltetrahydro-2H-pyran-4-yl)quinoline-3-carboxamide], the IC50 is 10 to 79.4 nM. Consider `CC(C)(O)[C@H]1CC[C@H](NC(=O)c2cnc3cc(C4CC4(F)F)c(F)cc3c2)CC1` (stereo partly drawn) [Example 151, 7-(2,2-Difluorocyclopropyl)-6-fluoro-N-(trans-4-(2-hydroxypropan-2-yl)cyclohexyl)quinoline-3-carboxamide], for which the IC50 is 10 to 79.4 nM. In the case of `CC(C)(O)[C@H]1CC[C@H](NC(=O)c2cnc3cc(OC(F)F)c(Br)cc3c2)CC1` [Example 152, 6-Bromo-7-(difluoromethoxy)-N-(trans-4-(2-hydroxypropan-2-yl)cyclohexyl)quinoline-3-carboxamide], the IC50 is < 10 nM. Still for that read-out and setting: as for `O=C(N[C@H]1CC[C@H](N[C@@H](CO)C(F)(F)F)CC1)c1cnc2cc(OC(F)F)c(Br)cc2c1` [Example 153, 6-Bromo-7-(difluoromethoxy)-N-(trans-4-(((S)-1,1,1-trifluoro-3-hydroxypropan-2-yl)amino)cyclohexyl)quinoline-3-carboxamide], the figure is < 10 nM; as for `O=C(N[C@H]1CCNC1=O)c1cnc2cc(OC(F)F)c(Br)cc2c1` [Example 154, (S)-6-Bromo-7-(difluoromethoxy)-N-(2-oxopyrrolidin-3-yl)quinoline-3-carboxamide], < 10 nM. Same read-out and setting: as for `O=C(N[C@H]1CC[C@H](N[C@H](CO)C(F)(F)F)CC1)c1cnc2cc(OC(F)F)c(Br)cc2c1` [Example 155, 6-Bromo-7-(difluoromethoxy)-N-(trans-4-(((R)-1,1,1-trifluoro-3-hydroxypropan-2-yl)amino)cyclohexyl)quinoline-3-carboxamide], the figure is < 10 nM; as for `C[C@]1(O)C[C@@H](NC(=O)c2cnc3cc(OC(F)F)c(Br)cc3c2)C1` [Example 157, 6-Bromo-7-(difluoromethoxy)-N-((1s,3s)-3-hydroxy-3-methylcyclobutyl)quinoline-3-carboxamide], 10 to 79.4 nM; as for `C[C@@H](N[C@H]1CC[C@H](NC(=O)c2cnc3cc(OC(F)F)c(Br)cc3c2)CC1)C(F)F` [Example 158, 6-Bromo-7-(difluoromethoxy)-N-(trans-4-(((R)-1,1-difluoropropan-2-yl)amino)cyclohexyl)quinoline-3-carboxamide], < 10 nM. Still for that read-out and setting: as for `C[C@H](N[C@H]1CC[C@H](NC(=O)c2cnc3cc(OC(F)F)c(Br)cc3c2)CC1)C(F)F` [Example 159, 6-Bromo-7-(difluoromethoxy)-N-(trans-4-(((S)-1,1-difluoropropan-2-yl)amino)cyclohexyl)quinoline-3-carboxamide], the figure is < 10 nM; as for `CN(C)c1cc2ncc(C(=O)N[C@H]3CC[C@H](C(C)(C)O)CC3)cc2cc1F` [Example 160, 7-(Dimethylamino)-6-fluoro-N-(trans-4-(2-hydroxypropan-2-yl)cyclohexyl)quinoline-3-carboxamide], < 10 nM. As to `CSc1cc2ncc(C(=O)N[C@H]3CC[C@H](C(C)(C)O)CC3)cc2cc1F` [Example 161, 6-Fluoro-N-(trans-4-(2-hydroxypropan-2-yl)cyclohexyl)-7-(methylthio)quinoline-3-carboxamide], the IC50 was < 10 nM. On to `CC(C)(O)[C@H]1CC[C@H](NC(=O)c2cnc3cc(N4CCC4)c(F)cc3c2)CC1` [Example 162, 7-(Azetidin-1-yl)-6-fluoro-N-(trans-4-(2-hydroxypropan-2-yl)cyclohexyl)quinoline-3-carboxamide], for which the IC50 was < 10 nM. As for `CC(C)(O)[C@H]1CC[C@H](NC(=O)c2cnc3cc(N4CCCC4)c(F)cc3c2)CC1` [Example 163, 6-Fluoro-N-(trans-4-(2-hydroxypropan-2-yl)cyclohexyl)-7-(pyrrolidin-1-yl)quinoline-3-carboxamide], the IC50 was 100 to 1000 nM. Same read-out and setting: as for `CC(C)(O)[C@H]1CC[C@H](NC(=O)c2cnc3cc(N4CC(F)C4)c(F)cc3c2)CC1` [Example 164, 6-Fluoro-7-(3-fluoroazetidin-1-yl)-N-(trans-4-(2-hydroxypropan-2-yl)cyclohexyl)quinoline-3-carboxamide], the figure is < 10 nM; as for `CC1(F)CN(c2cc3ncc(C(=O)N[C@H]4CC[C@H](C(C)(C)O)CC4)cc3cc2F)C1` [Example 165, 6-Fluoro-7-(3-fluoro-3-methylazetidin-1-yl)-N-(trans-4-(2-hydroxypropan-2-yl)cyclohexyl)quinoline-3-carboxamide], 10 to 79.4 nM. The same measure, in the same setting: as for `O=C(N[C@H]1CCNC1=O)c1cnc2cc(N3CCC3)c(Cl)cc2c1` [Example 166, (S)-7-(Azetidin-1-yl)-6-chloro-N-(2-oxopyrrolidin-3-yl)quinoline-3-carboxamide trifluoroacetic Acid Salt], the figure is < 10 nM. Still for that read-out and setting: as for `CC1(O)CC(NC(=O)c2cnc3cc(N4CCC4)c(Cl)cc3c2)C1` (centres unmarked) [Example 167, 7-(Azetidin-1-yl)-6-chloro-N-(3-hydroxy-3-methylcyclobutyl)quinoline-3-carboxamide trifluoroacetic Acid Salt], the figure is < 10 nM. With `CC(C)(O)[C@H]1CC[C@H](NC(=O)c2cnc3cc(N=[N+]=[N-])c(Cl)cc3c2)CC1` [Example 168, 7-Azido-6-chloro-N-(trans-4-(2-hydroxypropan-2-yl)cyclohexyl)quinoline-3-carboxamide], the IC50 was 10 to 79.4 nM. On the same count and under the same terms, as for `O=C(N[C@H]1CCNC1=O)c1cnc2cc(N3CC(F)C3)c(Cl)cc2c1` [Example 169, (S)-6-Chloro-7-(3-fluoroazetidin-1-yl)-N-(2-oxopyrrolidin-3-yl)quinoline-3-carboxamide], the figure is < 10 nM; as for `CC(=O)c1cc2ncc(C(=O)N[C@H]3CC[C@H](C(C)(C)O)CC3)cc2cc1Cl` [Example 172, 7-Acetyl-6-chloro-N-(trans-4-(2-hydroxypropan-2-yl)cyclohexyl)quinoline-3-carboxamide], < 10 nM.

The test is the same for the next values; noted with them: in at least one experimental run; read-out: H-PGDS pIC50 value (converted).
As for `C[C@]1(O)C[C@@H](NC(=O)c2cnc3cc(OC(F)F)c(Cl)cc3c2)C1` [Example 138, 6-Chloro-7-(difluoromethoxy)-N-((1s,3s)-3-hydroxy-3-methylcyclobutyl)quinoline-3-carboxamide], the IC50 is 20 nM. On the same count and under the same terms, as for `O=C1CC(NC(=O)c2cnc3cc(OC(F)F)c(Cl)cc3c2)C1` [Example 142, 6-Chloro-7-(difluoromethoxy)-N-(3-oxocyclobutyl)quinoline-3-carboxamide], the figure is 39.8 nM; as for `CC1(C)CC(NC(=O)c2cnc3cc(OC(F)F)c(Cl)cc3c2)CCO1` (centres unmarked) [Example 150, 6-Chloro-7-(difluoromethoxy)-N-(2,2-dimethyltetrahydro-2H-pyran-4-yl)quinoline-3-carboxamide], 39.8 nM. Same read-out and setting: as for `CN(C)c1cc2ncc(C(=O)N[C@H]3CC[C@H](C(C)(C)O)CC3)cc2cc1F` [Example 160, 7-(Dimethylamino)-6-fluoro-N-(trans-4-(2-hydroxypropan-2-yl)cyclohexyl)quinoline-3-carboxamide], the figure is 3.98 nM. The same measure, in the same setting: as for `CC1(F)CN(c2cc3ncc(C(=O)N[C@H]4CC[C@H](C(C)(C)O)CC4)cc3cc2F)C1` [Example 165, 6-Fluoro-7-(3-fluoro-3-methylazetidin-1-yl)-N-(trans-4-(2-hydroxypropan-2-yl)cyclohexyl)quinoline-3-carboxamide], the figure is 63.1 nM.
